Reference: US5250561A, “Tetrahydroindazole, tetrahydrocyclopentapyrazole, and hexahydrocycloheptapyrazole compounds and their use as HMG-COA reductase inhibitors” (Ortho Pharmaceutical Corporation, priority 1992, dated 1993)
Counter-ions that a name gives are not always drawn.

Experiments:
[1] = tested on: Hep-G2 cells; assay: Cell Culture Cholesterol Biosynthesis Assay; type: cell-based; details: Homo sapiens, racemic mixture
Procedure: When the cells were 2/3 confluent, they were fed MEM containing Earles salts and delipidated serum protein (DLP) at 5 mg/mL and then incubated for a period of 24 h. DLP was prepared according to the procedure of Rothblat, et. al. ([…]., Howard, B. V. In Vitro (Rockville), 12, 1976, 554-557). The DLP medium was then removed and 3.3 mL of media containing the drug indicated was added. […] Fatty acids were extracted and digitonin precipitable sterols were recovered according the procedure of Kanduch and Saucier (Kandutch, A. A., Saucier, S. E. Journal of Biological Chemistry, 244, 1969, 2299-2305). To adjust for cell number per flask, the cholesterol synthesized was normalized to the fatty acids synthesized and results were expressed as percent inhibition vs. control.

[2] = molecular target: HMG-CoA reductase; assay: HMG-CoA Reductase Isolation And Assay (ammonium sulfate precipitated enzyme from rat liver); type: biochemical, male Wistar rats; details: racemic mixture
Procedure: Livers were harvested from male Wistar rats (250 g) following a five day feeding with powdered chow containing 2% cholestyramine. Ammonium sulfate precipitated HMG-CoA reductase was prepared from these livers according to the method of Heller, et. al. (Heller, R. A. Shrewsbury, M. A. Journal of Biological Chemistry, 251, 1976, 3815-3822). HMG-CoA reductase activity was measured using a modification of the procedure of Edwards, et. al. (Edwards, P. A., Lemongello, […]. Journal of Lipid Research, 20, 1979, 40-46). The effects of compounds on HMG-CoA reductase activity were determined by combining the compound with the enzyme and preincubating for 10 minutes prior to addition of the substrate […].

Row | Compound | IC50 ([2]; Table III) [nM] | IC50 ([1]; HepG2, Table III) [nM] | other results
1 | CCOC(=O)C[C@H](O)C[C@H](O)/C=C/c1c2c(nn1-c1ccc(F)cc1)C(Cc1ccccc1)CCC2 (mixture of isomers) [Compound 47, Ethyl (E)-(3RS,5SR)-7-[7-benzyl-2-(4-fluorophenyl)-4,5,6,7-tetrahydro-2H-indazol-3-yl]-3,5-dihydroxy-6-heptenoate] |  |  | IC50 ([1]; HepG2, Table IV): 290 nM; IC50 ([2]; Table IV): 120 nM
2 | O=C1C[C@H](O)C[C@@H](/C=C/c2c3c(nn2-c2ccc(F)cc2)C(Cc2ccccc2)CCC3)O1 (mixture of isomers) [Compound 79, (E)-(4RS,6SR)-6-[2-[7-Benzyl-2-(4-fluorophenyl)-4,5,6,7-tetrahydro-2H-indazol-3-yl]ethenyl]-4-hydroxy-3,4,5,6-tetrahydro-2H-pyran-2-one] |  |  | IC50 ([1]; HepG2, Table V): 260 nM; IC50 ([2]; Table V): 750 nM
3 | O=C(O)C[C@H](O)C[C@H](O)/C=C/c1nn(-c2ccc(F)cc2)c2c1CCC2 (relative stereo) [Compound 2] |  |  | IC50 ([2]; Table II): 100000 nM
4 | O=C(O)C[C@H](O)C[C@H](O)/C=C/c1nn(Cc2ccc(F)cc2)c2c1CCCCC2 (relative stereo) [Compound 9] |  |  | IC50 ([2]; Table II): 100000 nM
5 | O=C(O)C[C@H](O)C[C@H](O)/C=C/c1c2c(nn1-c1ccc(F)cc1)CCC2 (relative stereo) [Compound 10] | 5100 |  | 
6 | O=C(O)C[C@H](O)C[C@H](O)/C=C/c1c2c(nn1-c1ccc(F)cc1)CCCCC2 (relative stereo) [Compound 37] | 3800 |  | 
7 | O=C1C[C@H](O)C[C@@H](/C=C/c2c3c(nn2-c2ccc(F)cc2)CCCC3)O1 (relative stereo) [Compound 83] |  |  | IC50 ([2]; Table V): 9000 nM
8 | O=C(O)C[C@H](O)C[C@H](O)/C=C/c1c2c(nn1-c1ccc(F)cc1)C(Cc1ccc(-c3ccccc3)cc1)CCC2 (stereo partly drawn) [Compound 1, (E)-(3RS,5SR)-7-[7-[(1,1'-Biphenyl)-4-ylmethyl]-2-(4-fluorophenyl)-4,5,6,7-tetrahydro-2H-indazol-3-yl]-3,5-dihydroxy-6-heptenoic acid.Sodium salt.Dihydrate] | 2.7 | 240 | 
9 | O=C(O)C[C@H](O)C[C@H](O)/C=C/c1nn(-c2ccc(F)cc2)c2c1CCCC2Cc1ccc(F)cc1 (stereo partly drawn) [Compound 3] |  |  | IC50 ([1]; HepG2, Table II): 27000 nM; IC50 ([2]; Table II): 31000 nM
10 | O=C(O)C[C@H](O)C[C@H](O)/C=C/c1nn(-c2ccc(F)cc2)c2c1CCCC2C1CCCCC1 (stereo partly drawn) [Compound 4] |  |  | IC50 ([2]; Table II): 47000 nM
11 | CCC1CCCc2c(/C=C/[C@@H](O)C[C@@H](O)CC(=O)O)nn(-c3ccc(F)cc3)c21 (stereo partly drawn) [Compound 5] |  |  | IC50 ([2]; Table II): 35000 nM
12 | CC1CCCc2c(/C=C/[C@@H](O)C[C@@H](O)CC(=O)O)nn(-c3ccc(F)cc3)c21 (stereo partly drawn) [Compound 6] |  |  | IC50 ([2]; Table II): 100000 nM
13 | O=C(O)C[C@H](O)C[C@H](O)/C=C/c1nn(-c2ccc(F)cc2)c2c1CCCC2CCc1ccccc1 (stereo partly drawn) [Compound 7] |  |  | IC50 ([1]; HepG2, Table II): > 10000 nM
14 | O=C(O)C[C@H](O)C[C@H](O)/C=C/c1nn(-c2ccc(F)cc2)c2c1CCCC2CC=Cc1ccccc1 (stereo partly drawn) [Compound 8] |  |  | IC50 ([2]; Table II): 3000 nM
15 | O=C(O)C[C@H](O)C[C@H](O)/C=C/c1c2c(nn1-c1ccc(F)cc1)C(Cc1ccccc1Cl)CCC2 (stereo partly drawn) [Compound 12] | 100 | 1300 | 
16 | COc1cccc(CC2CCCc3c2nn(-c2ccc(F)cc2)c3/C=C/[C@@H](O)C[C@@H](O)CC(=O)O)c1 (stereo partly drawn) [Compound 14] | 48 | 1090 | 
17 | CC(C)(C)c1ccc(CC2CCCc3c2nn(-c2ccc(F)cc2)c3/C=C/[C@@H](O)C[C@@H](O)CC(=O)O)cc1 (stereo partly drawn) [Compound 21] | 16 | 135 | 
18 | CCCC1CCCc2c1nn(-c1ccc(F)cc1)c2/C=C/[C@@H](O)C[C@@H](O)CC(=O)O (stereo partly drawn) [Compound 29] | 1300 |  | 
19 | O=C(O)C[C@H](O)C[C@H](O)/C=C/c1c2c(nn1-c1ccc(F)cc1)C(c1ccccc1)CCC2 (stereo partly drawn) [Compound 30] | 3100 |  | 
20 | O=C(O)C[C@H](O)C[C@H](O)/C=C/c1c2c(nn1-c1ccc(F)cc1)C(CC=Cc1ccccc1)CCC2 (stereo partly drawn) [Compound 34] | 32 | 1300 | 
21 | COC(=O)C[C@H](O)C[C@H](O)/C=C/c1c2c(nn1-c1ccc(F)cc1)C(Cc1ccc3ccccc3c1)CCC2 (stereo partly drawn) [Compound 42] |  |  | IC50 ([1]; HepG2, Table I): 365 nM
22 | COC(=O)C[C@H](O)C[C@H](O)/C=C/c1c2c(nn1-c1ccc(F)cc1)C(Cc1ccc(C(C)C)cc1)CCC2 (stereo partly drawn) [Compound 43] |  |  | IC50 ([1]; HepG2, Table I): 120 nM
23 | CCOC(=O)C[C@H](O)C[C@H](O)/C=C/c1c2c(nn1-c1ccc(F)cc1)C(Cc1cccc(OC)c1)CCC2 (stereo partly drawn) [Compound 58] |  |  | IC50 ([1]; HepG2, Table IV): 800 nM; IC50 ([2]; Table IV): 210 nM
24 | CCOC(=O)C[C@H](O)C[C@H](O)/C=C/c1c2c(nn1-c1ccc(F)cc1)C(Cc1ccc(Cl)cc1)CCC2 (stereo partly drawn) [Compound 60] |  |  | IC50 ([1]; HepG2, Table IV): 460 nM
25 | CCOC(=O)C[C@H](O)C[C@H](O)/C=C/c1c2c(nn1-c1ccc(F)cc1)C(Cc1ccc(C)cc1)CCC2 (stereo partly drawn) [Compound 62] |  |  | IC50 ([1]; HepG2, Table IV): 200 nM; IC50 ([2]; Table IV): 70 nM
26 | CCOC(=O)C[C@H](O)C[C@H](O)/C=C/c1c2c(nn1-c1ccc(F)cc1)C(Cc1ccc(C(C)(C)C)cc1)CCC2 (stereo partly drawn) [Compound 64] |  |  | IC50 ([2]; Table IV): 30 nM
27 | CCC(CC)CC1CCCc2c1nn(-c1ccc(F)cc1)c2/C=C/[C@@H]1C[C@@H](O)CC(=O)O1 (stereo partly drawn) [Compound 80] |  |  | IC50 ([2]; Table V): 29000 nM
28 | O=C1C[C@H](O)C[C@@H](/C=C/c2c3c(nn2-c2ccc(F)cc2)C(Cc2ccc4ccccc4c2)CCC3)O1 (stereo partly drawn) [Compound 81] |  |  | IC50 ([1]; HepG2, Table V): 390 nM
29 | CC(C)(C)c1ccc(CC2CCCc3c2nn(-c2ccc(F)cc2)c3/C=C/[C@@H]2C[C@@H](O)CC(=O)O2)cc1 (stereo partly drawn) [Compound 82] |  |  | IC50 ([1]; HepG2, Table V): 230 nM; IC50 ([2]; Table V): 70 nM

The next lines start with results.

Row | IC50 ([2]; Table III) [nM] | IC50 ([1]; HepG2, Table III) [nM] | Compound | other results
30 | 13000 |  | O=C(O)C[C@H](O)C[C@H](O)/C=C/c1c2c(nn1-c1ccc(F)cc1)-c1ccccc1CC2 (relative stereo) [Compound 22] | 
31 | 2500 |  | O=C(O)C[C@H](O)C[C@H](O)/C=C/c1c2c(nn1-c1ccc(F)cc1)CCCC2 (relative stereo) [Compound 25] | 
32 | 8800 |  | O=C(O)C[C@H](O)C[C@H](O)/C=C/c1c2c(nn1-c1ccc(Cl)cc1)CCCC2 (relative stereo) [Compound 26] | 
33 | 2700 |  | C/C(=C\c1c2c(nn1-c1ccc(F)cc1)CCCC2)[C@@H](O)C[C@@H](O)CC(=O)O (relative stereo) [Compound 27] | 
34 | 2100 |  | O=C(O)C[C@H](O)C[C@H](O)/C=C/c1c2c(nn1-c1ccc(F)cc1)-c1ccccc1CCC2 (relative stereo) [Compound 36] | 
35 | 23000 |  | O=C(O)C[C@H](O)C[C@H](O)/C=C/c1c2c(nn1Cc1ccc(F)cc1)CCCCC2 (relative stereo) [Compound 38] | 
36 | 26 | 370 | O=C(O)C[C@H](O)C[C@H](O)/C=C/c1c2c(nn1-c1ccc(F)cc1)C(Cc1cccc3ccccc13)CCC2 (stereo partly drawn) [Compound 11] | 
37 | 5.6 | 330 | O=C(O)C[C@H](O)C[C@H](O)/C=C/c1c2c(nn1-c1ccc(F)cc1)C(Cc1ccc3ccccc3c1)CCC2 (stereo partly drawn) [Compound 13] | 
38 | 168 | 3900 | COc1ccc(CC2CCCc3c2nn(-c2ccc(F)cc2)c3/C=C/[C@@H](O)C[C@@H](O)CC(=O)O)cc1OC (stereo partly drawn) [Compound 15] | 
39 | 58 | 360 | O=C(O)C[C@H](O)C[C@H](O)/C=C/c1c2c(nn1-c1ccc(F)cc1)C(Cc1ccc(Cl)cc1)CCC2 (stereo partly drawn) [Compound 16] | 
40 | 150 | 700 | O=C(O)C[C@H](O)C[C@H](O)/C=C/c1c2c(nn1-c1ccc(F)cc1)C(Cc1ccc(F)cc1)CCC2 (stereo partly drawn) [Compound 17] | 
41 | 14 | 260 | CC(C)c1ccc(CC2CCCc3c2nn(-c2ccc(F)cc2)c3/C=C/[C@@H](O)C[C@@H](O)CC(=O)O)cc1 (stereo partly drawn) [Compound 18] | 
42 | 19 | 130 | Cc1ccc(CC2CCCc3c2nn(-c2ccc(F)cc2)c3/C=C/[C@@H](O)C[C@@H](O)CC(=O)O)cc1 (stereo partly drawn) [Compound 19] | 
43 | 14 | 460 | COc1ccc(CC2CCCc3c2nn(-c2ccc(F)cc2)c3/C=C/[C@@H](O)C[C@@H](O)CC(=O)O)cc1 (stereo partly drawn) [Compound 20] | 
44 | 7700 |  | O=C(O)C[C@H](O)C[C@H](O)/C=C/c1c2c(nn1-c1ccc(F)cc1)C(C1CCCCC1)CCC2 (stereo partly drawn) [Compound 23] | 
45 | 1000 |  | CCC1CCCc2c1nn(-c1ccc(F)cc1)c2/C=C/[C@@H](O)C[C@@H](O)CC(=O)O (stereo partly drawn) [Compound 24] | 
46 | 1100 |  | CC1CCCc2c1nn(-c1ccc(F)cc1)c2/C=C/[C@@H](O)C[C@@H](O)CC(=O)O (stereo partly drawn) [Compound 28] | 
47 | 85 | 220 | O=C(O)C[C@H](O)C[C@H](O)/C=C/c1c2c(nn1-c1ccc(F)cc1)C(Cc1ccccc1)CCC2 (stereo partly drawn) [Compound 31] | 
48 | 334 | 1750 | O=C(O)C[C@H](O)C[C@H](O)/C=C/c1c2c(nn1-c1ccc(F)cc1)C(CCc1ccccc1)CCC2 (stereo partly drawn) [Compound 32] | 
49 | 160 | 1100 | O=C(O)C[C@H](O)C[C@H](O)/C=C/c1c2c(nn1-c1ccc(F)cc1)C(CCCc1ccccc1)CCC2 (stereo partly drawn) [Compound 33] | 
50 | 1000 |  | CCC(C)C1CCCc2c1nn(-c1ccc(F)cc1)c2/C=C/[C@@H](O)C[C@@H](O)CC(=O)O (stereo partly drawn) [Compound 35] | 
